Assay results taken from patent US20230391766A1, “1-(2-(4-CYCLOPROPYL-1H-1,2,3-TRIAZOL-1-YL)ACETYL)-4-HYDROXY-N-(BENZYL)PYRROLIDIN E-2-CARBOXAMIDE DERIVATIVES AS VHL INHIBITORS FOR THE TREATMENT OF ANEMIA AND CANCER” (Genentech, Inc., priority 2020, published 2023).

Columns and labels:
VHL [1] = target: T1, VHL (Homo sapiens, UniProt P40337); experiment: VHL nanoBRET (+ Digitonin); format: cell-based
T1 construct: expressed in transfected cells
Experimental: (§1) The VHL NanoBRET™ Target Engagement Assay analyzes the apparent affinity of test compounds for VHL in cells by competitive displacement of a VHL NanoBRET™ tracer reversibly bound to a NanoLuc® VHL fusion protein stably expressed in the cells.
(§2) 50 nL of control compound (10 mM; parental unlabeled VHL antagonist; see structure below) and 50 nL of DMSO (negative control) were dispensed into the appropriate control wells. DMSO was backfilled to a final volume of 50 nL as required. […] Max Signal control wells consisted of DMSO only treated wells. Minimum Signal control wells contained of 10 uM parental unlabeled VHL antagonist (control compound—see structure below). […] Background Signal control wells were prepared without tracer for background correction steps.
(§3) The raw BRET ratio values were calculated by dividing the acceptor emission value (610 nm) by the donor emission value (460 nm) for each sample. To correct for background, the BRET ratio in the absence of tracer (average of no-tracer control samples) was subtracted from the BRET ratio of each sample. Raw BRET units were converted to milliBRET units (mBU) by multiplying each raw BRET value by 1,000. The normalized NanoBRET™ signal was calculated relative to the Max Signal control wells (DMSO treated control wells) and the Minimum Signal control wells. Percentage inhibition was calculated relative to the Minimum Signal control and Maximum Signal control wells. IC50 values were derived by four parameter curve fitting using the Robust method.

VHL [2] = target: T1, VHL; experiment: VHL HEK-293 BRET Assay (VHL NanoBRET Target Engagement Assay); format: cell-based; settings: for IC50: HEK 293 RT VHL-NanoLuc stable cells, 1 uM tracer, 2 hours, geometric mean where more than one measurement, read-out: VHL binding in cells (HEK293 nanoBRET); for Ratio cell permeability shift: ratio not defined
Experimental: as §1, §2, §3

T1 sequence (P40337 whole entry): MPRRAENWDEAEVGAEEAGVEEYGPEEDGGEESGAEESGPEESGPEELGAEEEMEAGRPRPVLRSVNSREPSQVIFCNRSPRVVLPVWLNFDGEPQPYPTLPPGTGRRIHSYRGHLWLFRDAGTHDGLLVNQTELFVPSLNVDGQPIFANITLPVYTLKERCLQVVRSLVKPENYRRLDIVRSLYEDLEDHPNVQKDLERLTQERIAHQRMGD

Cc1ncsc1-c1ccc([C@H](C)NC(=O)[C@@H]2C[C@@H](O)CN2C(=O)[C@H](C2CCCCC2)n2cc(C3CC3)nn2)cc1 [Example S19, (2S,4R)-1-((S)-2-cyclohexyl-2-(4-cyclopropyl-1H-1,2,3-triazol-1-yl)acetyl)-4-hydroxy-N—((S)-1-(4-(4-methylthiazol-5-yl)phenyl)ethyl)pyrrolidine-2-carboxamide]
EC50 (VHL [1]): < 0.005 µM | IC50 (VHL [2]): < 0.005 µM | Ratio cell permeability shift (VHL [2]): ~1

Cc1ncsc1-c1ccc([C@H](C)NC(=O)[C@@H]2C[C@@H](O)CN2C(=O)[C@@H](n2cc(C3CC3)nn2)C23CC4CC(CC(C4)C2)C3)cc1 [Example S20, (2S,4R)-1-((2S)-2-(adamantan-1-yl)-2-(4-cyclopropyl-1H-1,2,3-triazol-1-yl)acetyl)-4-hydroxy-N—((S)-1-(4-(4-methylthiazol-5-yl)phenyl)ethyl)pyrrolidine-2-carboxamide]
EC50 (VHL [1]): 0.01 µM | Ratio cell permeability shift (VHL [2]): 0.54

CCC(C)(C)[C@@H](C(=O)N1C[C@H](O)C[C@H]1C(=O)N[C@@H](C)c1ccc(-c2scnc2C)cc1)n1cc(C2CC2)nn1 [Example S21, (2S,4R)-1-((S)-2-(4-cyclopropyl-1H-1,2,3-triazol-1-yl)-3,3-dimethylpentanoyl)-4-hydroxy-N—((S)-1-(4-(4-methylthiazol-5-yl)phenyl)ethyl)pyrrolidine-2-carboxamide]
EC50 (VHL [1]): 0.01 µM | Ratio cell permeability shift (VHL [2]): 0.67

Cc1ncsc1-c1ccc(C(C)NC(=O)[C@@H]2C[C@@H](O)CN2C(=O)[C@@H](n2cc(C3CC3)nn2)C(C)(C)C)c(Cl)c1 (stereo partly drawn) [Example S22, (2S,4R)—N-(1-(2-chloro-4-(4-methylthiazol-5-yl)phenyl)ethyl)-1-((S)-2-(4-cyclopropyl-1H-1,2,3-triazol-1-yl)-3,3-dimethylbutanoyl)-4-hydroxypyrrolidine-2-carboxamide]
EC50 (VHL [1]): 0.01 µM | IC50 (VHL [2]): 0.01 µM | Ratio cell permeability shift (VHL [2]): 0.72

Cc1ncsc1-c1ccc(C(C)NC(=O)[C@@H]2C[C@@H](O)CN2C(=O)[C@@H](n2cc(C3CC3)nn2)C23CC4CC(CC(C4)C2)C3)c(Cl)c1 (stereo partly drawn) [Example S23, (2S,4R)-1-((2S)-2-(adamantan-1-yl)-2-(4-cyclopropyl-1H-1,2,3-triazol-1-yl)acetyl)-N-(1-(2-chloro-4-(4-methylthiazol-5-yl)phenyl)ethyl)-4-hydroxypyrrolidine-2-carboxamide]
EC50 (VHL [1]): 0.04 µM | IC50 (VHL [2]): 0.02 µM | Ratio cell permeability shift (VHL [2]): 0.42

Cc1ncsc1-c1ccc(CNC(=O)[C@@H]2C[C@@H](O)CN2C(=O)[C@@H](n2cc(C3CC3)nn2)C(C)(C)c2ccccc2)cc1 [Example S26, (2S,4R)-1-((S)-2-(4-cyclopropyl-1H-1,2,3-triazol-1-yl)-3-methyl-3-phenylbutanoyl)-4-hydroxy-N-(4-(4-methylthiazol-5-yl)benzyl)pyrrolidine-2-carboxamide]
EC50 (VHL [1]): 0.02 µM | IC50 (VHL [2]): 0.02 µM | Ratio cell permeability shift (VHL [2]): 1.02

Cc1ncsc1-c1ccc(CNC(=O)[C@@H]2C[C@@H](O)CN2C(=O)[C@@H](n2cc(C3(C(F)(F)F)CC3)nn2)C(C)(C)C)cc1 [Example S28, (2S,4R)-1-((S)-3,3-dimethyl-2-(4-(1-(trifluoromethyl)cyclopropyl)-1H-1,2,3-triazol-1-yl)butanoyl)-4-hydroxy-N-(4-(4-methylthiazol-5-yl)benzyl)pyrrolidine-2-carboxamide]
EC50 (VHL [1]): 0.04 µM | IC50 (VHL [2]): 0.04 µM | Ratio cell permeability shift (VHL [2]): 0.98

Cc1ncsc1-c1ccc(CNC(=O)[C@@H]2C[C@@H](O)CN2C(=O)[C@@H](n2cc(C3(C)CC3)nn2)C(C)(C)C)cc1 [Example S29, (2S,4R)-1-((S)-3,3-dimethyl-2-(4-(1-methylcyclopropyl)-1H-1,2,3-triazol-1-yl)butanoyl)-4-hydroxy-N-(4-(4-methylthiazol-5-yl)benzyl)pyrrolidine-2-carboxamide]
EC50 (VHL [1]): 0.01 µM | IC50 (VHL [2]): 0.01 µM | Ratio cell permeability shift (VHL [2]): 1.04

Cc1cnnn1[C@H](C(=O)N1C[C@H](O)C[C@H]1C(=O)N[C@H](Cc1ccc(-c2ccccc2)cc1)C(N)=O)C(C)C [Example S32, (2S,4R)—N—((R)-3-([1,1′-biphenyl]-4-yl)-1-amino-1-oxopropan-2-yl)-4-hydroxy-1-((S)-3-methyl-2-(5-methyl-1H-1,2,3-triazol-1-yl)butanoyl)pyrrolidine-2-carboxamide]
EC50 (VHL [1]): 3.64 µM | IC50 (VHL [2]): 5.4 µM | Ratio cell permeability shift (VHL [2]): 1.48

Cc1nnn([C@H](C(=O)N2C[C@H](O)C[C@H]2C(=O)N[C@H](Cc2ccc(-c3ccccc3)cc2)C(N)=O)C(C)C)c1C [Example S37, (2S,4R)—N—((R)-3-([1,1′-biphenyl]-4-yl)-1-amino-1-oxopropan-2-yl)-1-((S)-2-(4,5-dimethyl-1H-1,2,3-triazol-1-yl)-3-methylbutanoyl)-4-hydroxypyrrolidine-2-carboxamide]
EC50 (VHL [1]): 1.16 µM | IC50 (VHL [2]): 1.66 µM | Ratio cell permeability shift (VHL [2]): 1.43

CC(C)[C@@H](C(=O)N1C[C@H](O)C[C@H]1C(=O)N[C@H](Cc1ccc(-c2ccccc2)cc1)C(N)=O)n1cc(-c2cccs2)nn1 [Example S38, (2S,4R)—N—((R)-3-([1,1′-biphenyl]-4-yl)-1-amino-1-oxopropan-2-yl)-4-hydroxy-1-((S)-3-methyl-2-(4-(thiophen-2-yl)-1H-1,2,3-triazol-1-yl)butanoyl)pyrrolidine-2-carboxamide]
EC50 (VHL [1]): 0.17 µM | IC50 (VHL [2]): 0.19 µM | Ratio cell permeability shift (VHL [2]): 1.12

CC(C)[C@@H](C(=O)N1C[C@H](O)C[C@H]1C(=O)N[C@H](Cc1ccc(-c2ccccc2)cc1)C(N)=O)n1cc(-c2ccco2)nn1 [Example S39, (2S,4R)—N—((R)-3-([1,1′-biphenyl]-4-yl)-1-amino-1-oxopropan-2-yl)-1-((S)-2-(4-(furan-2-yl)-1H-1,2,3-triazol-1-yl)-3-methylbutanoyl)-4-hydroxypyrrolidine-2-carboxamide]
EC50 (VHL [1]): 0.11 µM | IC50 (VHL [2]): 0.11 µM | Ratio cell permeability shift (VHL [2]): 0.93

Cc1ncsc1-c1ccc([C@@H](NC(=O)[C@@H]2C[C@@H](O)CN2C(=O)[C@@H](n2cc(C3CC3)nn2)C(C)(C)C)C(F)(F)F)cc1 [Example S40, (2S,4R)-1-((S)-2-(4-cyclopropyl-1H-1,2,3-triazol-1-yl)-3,3-dimethylbutanoyl)-4-hydroxy-N—((R)-2,2,2-trifluoro-1-(4-(4-methylthiazol-5-yl)phenyl)ethyl)pyrrolidine-2-carboxamide]
EC50 (VHL [1]): 0.11 µM | IC50 (VHL [2]): 0.08 µM | Ratio cell permeability shift (VHL [2]): 0.74

C[C@H](NC(=O)[C@@H]1C[C@@H](O)CN1C(=O)[C@@H](n1cc(C2CC2)nn1)C(C)(C)C)c1ccc(-c2ccccc2F)cc1 [Example S41, (2S,4R)-1-((S)-2-(4-cyclopropyl-1H-1,2,3-triazol-1-yl)-3,3-dimethylbutanoyl)-N—((S)-1-(2′-fluoro-[1,1′-biphenyl]-4-yl)ethyl)-4-hydroxypyrrolidine-2-carboxamide]
EC50 (VHL [1]): 0.01 µM | IC50 (VHL [2]): 0.01 µM | Ratio cell permeability shift (VHL [2]): 0.72

C[C@@H](NC(=O)[C@@H]1C[C@@H](O)CN1C(=O)[C@@H](n1cc(C2CC2)nn1)C(C)(C)C)c1ccc(-c2ccccc2F)cc1 [Example S42, (2S,4R)-1-((S)-2-(4-cyclopropyl-1H-1,2,3-triazol-1-yl)-3,3-dimethylbutanoyl)-N—((R)-1-(2′-fluoro-[1,1′-biphenyl]-4-yl)ethyl)-4-hydroxypyrrolidine-2-carboxamide]
EC50 (VHL [1]): 1.54 µM | IC50 (VHL [2]): 1.1 µM | Ratio cell permeability shift (VHL [2]): 0.71
